The values that follow come from patent publication US12171766B2, “Methods of treating patients suffering from brain injury and methods of increasing the value of the extended Glasgow Outcome Scale of patients suffering from brain injury” (VERINOS OPERATIONS GMBH, priority 2021, dated 2024).

Data set [1] can be described thus: NOSTRA phase III trial: exposure control (pharmacokinetics), samples after end of infusion and 12 hours after end of infusion. The data set is classed as in vivo, human. The settings on record: exposure control samples; no utilizable values for parent. On the procedure: An exposure control was performed with samples collected after end of infusion and 12 hours after end of infusion. Due to the high sensibility of Ronopterin to oxidation, no utilizable values could be obtained for Ronopterin and, therefore, the first metabolite, 4-amino-dihydrobiopterin, was used as a surrogate. The mean absolute concentration for the first metabolite of Ronopterin was 1071 ng/mL at the end of the infusion and 476 ng/mL 12 hours later (56% elimination). The mean absolute value for the second Ronopterin metabolite was 52 ng/mL at the end of the infusion and 37 ng/mL 12 hours after end of infusion.

Data set [2] is described as follows: NOSTRA phase III trial: safety and adverse event analyses. The class given is in vivo. On the procedure:
Safety analyses was performed using standard descriptive methods.
The total number of treatment-emergent adverse events (TEAE) and the total number of patients with TEAEs, the total number of TEAEs related to the study drug (certain, probable, possible), the total number of patients with TEAEs related to the study drug, the total number of TEAEs and the total number of patients with serious TEAEs, the total number of patients with TEAEs leading to discontinuation of study treatment and the total number of patients with TEAEs leading to death were summarised by treatment arm.

The test system of data set [3] is Moderate and Severe Traumatic Brain Injury. The settings on record: cited from earlier work.
Setting [4] is: may be due to over-reporting of some centres.

`CC(O)C(O)C1CNc2nc(N)nc(N)c2N1` [Ronopterin, 4-Amino-(6R,S)-5,6,7,8-tetrahydro-L-biopterin]: the sensibility to oxidation result in data set [1] is recorded as “high”. Further, in data set [2] (Ronopterin:placebo 11:3), the “number of renal AEs” value was 11. Further, in data set [2] (TBI patients, 17 mg/kg over 48 hours), the “tolerability of study treatment” value is “well-tolerated”. The “number of related AE/SAEs” value in data set [2] (between the groups (Ronopterin, placebo)) is “low and comparable”. Besides, in data set [2] (in vivo), the “number of adverse events (AEs) and serious adverse events (SAEs) compared to placebo” value is “slightly higher”. Also, in data set [2] (setting [4]), the “ICP increased, number of patients” value is reported as 27 patients and the “ICP increased, proportion of patients” value is reported as 23.9%. Further, in data set [3] (Phase IIa trial [Stover]), the “effect of infusion during the initial 12 hours after TBI” value is recorded as “benefits”. The “effect in phase II clinical trial” value in data set [3] (Stover et al. 2014 (NOSTRA phase IIa)) is “beneficial”.
